“Also recorded” adds a separate entry of the source. Counter-ions that a name gives are not always drawn.
Experiments:
[1] = system: variety of cell types; details: cited from earlier work
[2] = system: CPP32; experiment: Apaf-2 activity: recombining with phosphocellulose flow through fraction (Apaf-1) and 35S-labeled CPP32; format: biochemical, human; details: for Apaf-2 activity (dATP-dependent activation of CPP32): 0.2 μg protein with phosphocellulose flowthrough fraction, 1 mM dATP
Method: FIG. 3 illustrates fractionation and reconstitution of dATP-dependent activation of CPP32 by phosphocellulose chromatography. HeLa cell S-100 was subjected to phosphocellulose chromatography and the column flow through and bound material were collected as described in the Examples. Aliquots (10 μl) of HeLa S-100 (50 μg) (lanes 1 and 2), phosphocellulose flow through fraction (PC-FT) (lanes 3 and 4), phosphocellulose bound fraction (PC-B) (lanes 5 and 6), and the mixture of phosphocellulose flow through and bound material (lanes 7 and 8) were incubated with aliquots of 3 μl in vitro translated, ^35S-labeled CPP32 at 30° C. for 1 hr in the absence (lanes 1,3,5,7) or presence (lanes 2,4,6,8) of 1 mM dATP. The samples were subjected to SDS-PAGE, transferred to a nitrocellulose filter, and the filter was exposed to film for 16 hours at room temperature.
The Apaf-2 activity that bound to the phosphocellulose column was purified through the Mono S column as described in Example 7. […] In FIG. 4B, aliquots (30 μl) of the Mono-S fractions were subjected to 15% SDS-PAGE and the proteins were visualized by silver staining.
Aliquots of 0.2 μg of Apaf-2 purified through the Mono S column (lanes 1, 2), cytochrome c from bovine heart (lanes 3, 4), and rat liver (lanes 5, 6) were incubated with aliquots of 10 μl phosphocellulose flowthrough fraction and 3 μl in vitro translated, 35S-labeled CPP32 at 30° C. for 1 hr in a final volume of 20 μl buffer A in the absence (lanes 1,3,5) or presence of (lanes 2, 4, 6) 1 mM dATP. Samples were subjected to SDS-PAGE and transferred to a nitrocellulose filter which was then exposed to a film for 16 hr at room temperature.
To isolate the protein(s) required for the activation of CPP32, HeLa S-100 was loaded onto a phosphocellulose column, and the flow-through and bound fractions were collected. […] When the flowthrough and bound fractions were mixed, CPP32-activating activity was restored (lanes 7-8). […] The factor(s) that flow through the phosphocellulose column are designated apoptotic protease activating factor-1 (Apaf-1) and the factor that bound to the column is designated apoptotic protease activating factor-2 (Apaf-2). It is understood that “Apaf-1” may represent more than one protein or it may represent a combination of protein(s) and other factors.
Apaf-2 activity was assayed by recombining with Apaf-1 after purification by the following steps. First, the Apaf-2 fraction was subjected to 50% ammonium sulfate precipitation. All of the activity remained in the supernatant while most of the protein precipitated (Table I). The supernatant was loaded onto a phenyl-sepharose (hydrophobic interaction) column and the activity was eluted with 1 M ammonium sulfate. The eluate was passed through a gel filtration column; active fractions were subjected to sequential Mono Q (anion exchange) and Mono S (cation exchange) chromatography. The Apaf-2 activity flowed through the Mono Q column, and the flow through was directly loaded onto the Mono S column. Bound Apaf-2 activity was then eluted with a 100-300 mM NaCl linear salt gradient. The fractions from the Mono S column were collected and assayed. […] The active fractions were analyzed by SDS-PAGE (FIG. 4B). A protein of apparent molecular mass of 15 kDa was co-eluted with the activity. No other proteins were detected by silver staining in the active Apaf-2 fractions.
CPP32 was translated and purified as described above. […]

[3] = system: CPP32; experiment: Reconstitution of dATP-dependent CPP32 activation in HeLa S-100 immunodepleted of cytochrome c; format: biochemical, human; details: 0.2 μg added to immunodepleted HeLa S-100, 1 mM dATP
Method: (§1) Cytochrome c present in the HeLa cell S-100 was immunodepleted as described in the Example 10. In FIG. 7A, 10 μl aliquots of HeLa S-100 (50 μg) (lanes 1 and 2), or 10 μl aliquots of HeLa S-100 immunodepleted of cytochrome c (lanes 3 and 4), or 10 μl of HeLa S-100 immunodepleted of cytochrome c supplemented with 0.2 μg Apaf-2 purified through the Mono S column (H) (lanes 5 and 6), bovine heart cytochrome c (B) (lanes 7 and 8), or rat liver cytochrome c (R) (lanes 9 and 10), were incubated with aliquots of 3 μl in vitro translated, ^35S-labeled CPP32 in the absence (lanes 1, 3, 5, 7, 9) or presence (lanes 2, 4, 6, 8, 10) of 1 mM dATP at 30° C. for 1 hr in a final reaction volume of 20 μl of buffer A. Samples were subjected to SDS-PAGE and transferred to a nitrocellulose filter which were then exposed to film for 16 hr at room temperature. In FIG. 7B, HeLa S-100 (50 μg) immunodepleted of cytochrome c were reconstituted with the indicated amount of Apaf-2 (purified through Mono S column step) in a CPP32 cleavage reaction as described in FIG. 7A. The cleaved products (p20) were quantified in a Fuji-1000 phosphorimager machine and plotted in comparison with that generated by HeLa S-100. In FIG. 7C, aliquots of 50 μl of HeLa S-100 (250 μg) (lanes 1 and 2), or 50 μl of HeLa S-100 immunodepleted of cytochrome c (lanes 3 and 4), or 50 μl of HeLa S-100 immunodepleted of cytochrome c supplemented with 1 μg apaf-2 purified through the Mono S column (H) (lanes 5 and 6), bovine heart cytochrome c (B) (lanes 7 and 8), or rat liver cytochrome c (R) (lanes 9 and 10), were incubated with aliquots of 6 μl hamster liver nuclei in the absence (lanes 1, 3, 5, 7, 9) or presence (lanes 2, 4, 6, 8, 10) of 1 mM dATP at 37° C. for 2 hr in a final reaction volume of 60 μl. The DNA were isolated as described in the Examples, analyzed on 2% agarose gel electrophoresis, and the DNA was visualized by ethidium bromide staining. In FIG. 7D, DNA fragmentation assays were carried out as in FIG. 7C using HeLa S-100 immunodepleted of cytochrome c alone (a,b) or supplemented with Apaf-2 purified through Mono S column step (c,d) in the absence (a,c) or presence of 1 mM dATP (b,d). After 2 hr incubation at 37° C., an aliquot of each reaction (30 μl) was stained with 4′,6′-diamidino-2-phenylindole (DAPI), and observed under a fluorescence microscope with a UV-2A combination filter.
To rule out the possibility that the Apaf-2 activity is due to a minor contaminating protein that co-purified with cytochrome c, an immunodepletion experiment was carried out using a monoclonal antibody against rat cytochrome c. This monoclonal antibody cross-reacts with purified Apaf-2. As shown in FIGS. 7A-7D, HeLa cell S-100 depleted of cytochrome c using the monoclonal anti-cytochrome c antibody lost the dATP-dependent activation of CPP32 and the ability to induce DNA fragmentation in the added nuclei (FIGS. 7A and 7C, lanes 3 and 4). Adding back either the purified Apaf-2 from HeLa cells or the commercial cytochrome c from bovine heart or rat liver to the immunodepleted extracts restored the dATP-dependent activation of CPP32 and DNA fragmentation (FIGS. 7A and 7C, lanes 5-10). The reconstitution of cytochrome c dependent-activation of CPP32 was evident with the addition of 0.01 μg (33 nM) of purified cytochrome c to the cytochrome c-depleted extracts (FIG. 7B).
CPP32 was translated and purified as described above. Aliquot of 3 μl of the in vitro translated CPP32 was incubated with the indicated protein fraction, nucleotides, and 1 mM additional MgCl2 at 30° C. for 1 hour in a final volume of 20 μl of buffer A. At the end of the incubation, 7 μl of 4×SDS sample buffer was added to each reaction. After boiling for 3 min, each sample was subjected to a 15% SDS-polyacrylamide gel electrophoresis (SDS-PAGE). The gel was transferred to a nitrocellulose filter which was subsequently exposed to a Kodak X-OMAT AR X-ray film (Eastman Kodak, Rochester, N.Y.) for 16 hr at room temperature. […]

[4] = system: hamster liver nuclei; experiment: Reconstitution of DNA fragmentation and nuclear morphological change in HeLa S-100 immunodepleted of cytochrome c; format: biochemical; details: 1 μg added to immunodepleted HeLa S-100, 1 mM dATP
Method: as §1
To rule out the possibility that the Apaf-2 activity is due to a minor contaminating protein that co-purified with cytochrome c, an immunodepletion experiment was carried out using a monoclonal antibody against rat cytochrome c. This monoclonal antibody cross-reacts with purified Apaf-2. […]

[5] = one unit = cleavage of 1% of the input substrate in 60 min

Row | Compound | initiation of apoptosis [1] | Apaf-2 activity (dATP-dependent activation of CPP32) [2] | restoration of dATP-dependent activation of CPP32 [3] | restoration of DNA fragmentation [4] | further results
1 | COc1cc([C@@H]2c3cc4c(cc3[C@@H](O[C@@H]3O[C@@H]5CO[C@@H](C)O[C@H]5[C@H](O)[C@H]3O)[C@H]3COC(=O)[C@H]23)OCO4)cc(OC)c1O [etoposide] | act to initiate apoptosis |  |  |  | 
2 | O=C1c2c(O)ccc(O)c2C(=O)c2c(NCCNCCO)ccc(NCCNCCO)c21 [mitoxantrone HCl] | act to initiate apoptosis |  |  |  | 
3 | Mono Q/Mono-S: Apaf-2 purification step 6: Apaf-2 purified through the Mono S column |  |  |  |  | Specific Activity [2, 5]: 263150 units/mg; Total Activity [2, 5]: 20000 unit
4 | bovine heart cytochrome c: commercial cytochrome c from bovine heart (Sigma) |  | have Apaf-2 activity; also recorded: initiated dATP-dependent activation of CPP32 as efficiently as Apaf-2 | restored | restored | 
5 | rat liver cytochrome c: commercial cytochrome c from rat liver (Sigma) |  | have Apaf-2 activity; also recorded: initiated dATP-dependent activation of CPP32 as efficiently as Apaf-2 | restored | restored | 

Reference: patent US6558900B2, “Regulation of apoptosis and in vitro model for studies thereof” (Emory University, priority 1996, dated 2003)
